The NIST ThermoML archive (doi:10.1016/j.fluid.2015.07.010)

Details: for kinematic viscosity: Liquid, Scattered Light Surfacing

CCF [fluoroethane]
Details | surface tension liquid-gas [mN/m]
244.13 K, Capillary rise | 16.72
246.15 K, Capillary rise | 16.42
248.13 K, Capillary rise | 16.18
250.05 K, Capillary rise | 15.87
252.1 K, Capillary rise | 15.59
254.15 K, Capillary rise | 15.26
256.05 K, Capillary rise | 14.97
258.13 K, Capillary rise | 14.69
260.05 K, Capillary rise | 14.38
262.08 K, Capillary rise | 14.13
264.13 K, Capillary rise | 13.85
266.1 K, Capillary rise | 13.58
268.08 K, Capillary rise | 13.27
270.1 K, Capillary rise | 13
272.04 K, Capillary rise | 12.69
274.1 K, Capillary rise | 12.4
276.03 K, Capillary rise | 12.08
278.14 K, Capillary rise | 11.81
280.14 K, Capillary rise | 11.54
282.14 K, Capillary rise | 11.25
284.14 K, Capillary rise | 10.95
286.12 K, Capillary rise | 10.67
288.13 K, Capillary rise | 10.38
290.12 K, Capillary rise | 10.1
292.13 K, Capillary rise | 9.82
293.43 K, Surface Light Scattering | 9.46
294.12 K, Capillary rise | 9.53
296.12 K, Capillary rise | 9.24
298.1 K, Capillary rise | 8.96
300.11 K, Capillary rise | 8.66
302.17 K, Capillary rise | 8.37
303.14 K, Surface Light Scattering | 8.16
304.11 K, Capillary rise | 8.08
305.13 K, Capillary rise | 7.95
306.12 K, Capillary rise | 7.83
308.12 K, Capillary rise | 7.54
310.18 K, Capillary rise | 7.27
312.17 K, Capillary rise | 7
313.11 K, Surface Light Scattering | 6.78
314.18 K, Capillary rise | 6.71
316.17 K, Capillary rise | 6.44
318.16 K, Capillary rise | 6.17
320.17 K, Capillary rise | 5.86
322.18 K, Capillary rise | 5.61
323.14 K, Surface Light Scattering | 5.46
324.18 K, Capillary rise | 5.39
326.17 K, Capillary rise | 5.08
328.16 K, Capillary rise | 4.84
330.17 K, Capillary rise | 4.6
332.17 K, Capillary rise | 4.33
333.15 K, Surface Light Scattering | 4.2
334.16 K, Capillary rise | 4.1
343.14 K, Surface Light Scattering | 3
353.12 K, Surface Light Scattering | 1.89
363.11 K, Surface Light Scattering | 0.92
373.09 K, Surface Light Scattering | 0.13

Details | kinematic viscosity [m2/s]
293.43 K | 1.81e-07
303.14 K | 1.66e-07
313.11 K | 1.52e-07
323.14 K | 1.42e-07
333.15 K | 1.32e-07
343.14 K | 1.22e-07
353.12 K | 1.12e-07
363.11 K | 1.03e-07
373.09 K | 8.97e-08
